In PubChem BioAssay (NCI):
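A five-concentration, 48-hour dose response in 96-well plates underlies each endpoint, interpolated linearly between surrounding concentrations. Definition used: TGI = concentration required for complete inhibition of growth.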

What was measured:
Test in all cases: growth of human tumour cells (NCI), 48 h
ACHN renal = test system: ACHN renal
MALME-3M melanoma = test system: MALME-3M melanoma
M14 melanoma = test system: M14 melanoma
SR leukemia = test system: SR leukemia
HL-60(TB) leukemia = test system: HL-60(TB) leukemia
SF-295 CNS = test system: SF-295 CNS
MOLT-4 leukemia = test system: MOLT-4 leukemia
SNB-19 CNS = test system: SNB-19 CNS
SK-MEL-5 melanoma = test system: SK-MEL-5 melanoma
OVCAR-8 ovarian = test system: OVCAR-8 ovarian
MDA-MB-435 = test system: MDA-MB-435
NCI-H23 lung = test system: NCI-H23 lung
SN12C renal = test system: SN12C renal
TK-10 renal = test system: TK-10 renal
HCT-15 colon = test system: HCT-15 colon
COLO 205 colon = test system: COLO 205 colon
U251 CNS = test system: U251 CNS
HCT-116 colon = test system: HCT-116 colon
OVCAR-3 ovarian = test system: OVCAR-3 ovarian
UACC-257 melanoma = test system: UACC-257 melanoma
NCI-H460 lung = test system: NCI-H460 lung
CAKI-1 renal = test system: CAKI-1 renal
PC-3 prostate = test system: PC-3 prostate
K-562 leukemia = test system: K-562 leukemia
KM12 colon = test system: KM12 colon
HOP-62 NSCLC = test system: HOP-62 NSCLC
RPMI-8226 leukemia = test system: RPMI-8226 leukemia
DU-145 prostate = test system: DU-145 prostate
UO-31 renal = test system: UO-31 renal
SK-MEL-28 melanoma = test system: SK-MEL-28 melanoma
SK-MEL-2 melanoma = test system: SK-MEL-2 melanoma
A549 NSCLC = test system: A549 NSCLC
BT-549 breast = test system: BT-549 breast
LOX IMVI melanoma = test system: LOX IMVI melanoma
OVCAR-4 ovarian = test system: OVCAR-4 ovarian
MCF7 breast = test system: MCF7 breast
MDA-MB-231 breast = test system: MDA-MB-231 breast
HCC-2998 colon = test system: HCC-2998 colon
NCI/ADR-RES ovarian = test system: NCI/ADR-RES ovarian
MDA-N = test system: MDA-N
OVCAR-5 ovarian = test system: OVCAR-5 ovarian
CCRF-CEM leukemia = test system: CCRF-CEM leukemia
EKVX NSCLC = test system: EKVX NSCLC
SK-OV-3 ovarian = test system: SK-OV-3 ovarian
SW-620 colon = test system: SW-620 colon
786-0 renal = test system: 786-0 renal
UACC-62 melanoma = test system: UACC-62 melanoma
HT29 colon = test system: HT29 colon
SF-539 CNS = test system: SF-539 CNS
NCI-H226 lung = test system: NCI-H226 lung
HOP-92 NSCLC = test system: HOP-92 NSCLC
NCI-H522 lung = test system: NCI-H522 lung
SNB-75 CNS = test system: SNB-75 CNS
IGROV1 ovarian = test system: IGROV1 ovarian
A498 renal = test system: A498 renal
SF-268 CNS = test system: SF-268 CNS
HS 578T breast = test system: HS 578T breast
RXF 393 renal = test system: RXF 393 renal

Measured: TGI

CC(C(=O)O)c1ccc(-n2nnc3c(=O)[nH][nH]c(=O)c32)cc1 (stereo unspecified)
> 100 µM: ACHN renal | MALME-3M melanoma | M14 melanoma | SR leukemia | HL-60(TB) leukemia | SF-295 CNS | MOLT-4 leukemia | SNB-19 CNS | SK-MEL-5 melanoma | OVCAR-8 ovarian | MDA-MB-435 | NCI-H23 lung | SN12C renal | TK-10 renal | HCT-15 colon | COLO 205 colon | U251 CNS | HCT-116 colon | OVCAR-3 ovarian | UACC-257 melanoma | NCI-H460 lung | CAKI-1 renal | PC-3 prostate | K-562 leukemia | KM12 colon | HOP-62 NSCLC | RPMI-8226 leukemia | DU-145 prostate | UO-31 renal | SK-MEL-28 melanoma | SK-MEL-2 melanoma | A549 NSCLC | BT-549 breast | LOX IMVI melanoma | OVCAR-4 ovarian | MCF7 breast | MDA-MB-231 breast | HCC-2998 colon | NCI/ADR-RES ovarian | MDA-N | OVCAR-5 ovarian | CCRF-CEM leukemia | EKVX NSCLC

CC(=O)NC(CC(C)C)C(=O)NC(CC(C)C)C(=O)NC(C=O)CCCN=C(N)N (stereo unspecified)
> 100 µM: ACHN renal | MALME-3M melanoma | M14 melanoma | SR leukemia | SF-295 CNS | MOLT-4 leukemia | SNB-19 CNS | SK-OV-3 ovarian | SW-620 colon | SK-MEL-5 melanoma | OVCAR-8 ovarian | MDA-MB-435 | 786-0 renal | NCI-H23 lung | UACC-62 melanoma | HT29 colon | SN12C renal | TK-10 renal | HCT-15 colon | COLO 205 colon | SF-539 CNS | U251 CNS | NCI-H226 lung | HCT-116 colon | OVCAR-3 ovarian | UACC-257 melanoma | NCI-H460 lung | HOP-92 NSCLC | CAKI-1 renal | PC-3 prostate | K-562 leukemia | KM12 colon | HOP-62 NSCLC | NCI-H522 lung | RPMI-8226 leukemia | DU-145 prostate | UO-31 renal | SNB-75 CNS | IGROV1 ovarian | SK-MEL-28 melanoma | A498 renal | SK-MEL-2 melanoma | A549 NSCLC | BT-549 breast | LOX IMVI melanoma | OVCAR-4 ovarian | MCF7 breast | MDA-MB-231 breast | HCC-2998 colon | NCI/ADR-RES ovarian | MDA-N | SF-268 CNS | OVCAR-5 ovarian | CCRF-CEM leukemia | EKVX NSCLC

CC(=O)OCCOCn1c2c(c(=O)[nH]c1=O)CCC2
> 100 µM: ACHN renal | MALME-3M melanoma | M14 melanoma | SR leukemia | HL-60(TB) leukemia | SF-295 CNS | MOLT-4 leukemia | SNB-19 CNS | SW-620 colon | SK-MEL-5 melanoma | OVCAR-8 ovarian | MDA-MB-435 | 786-0 renal | NCI-H23 lung | HS 578T breast | HT29 colon | SN12C renal | TK-10 renal | HCT-15 colon | COLO 205 colon | SF-539 CNS | U251 CNS | NCI-H226 lung | HCT-116 colon | OVCAR-3 ovarian | UACC-257 melanoma | HOP-92 NSCLC | CAKI-1 renal | PC-3 prostate | K-562 leukemia | RXF 393 renal | KM12 colon | HOP-62 NSCLC | NCI-H522 lung | RPMI-8226 leukemia | DU-145 prostate | UO-31 renal | SNB-75 CNS | IGROV1 ovarian | SK-MEL-28 melanoma | SK-MEL-2 melanoma | A549 NSCLC | BT-549 breast | LOX IMVI melanoma | OVCAR-4 ovarian | MCF7 breast | MDA-MB-231 breast | HCC-2998 colon | MDA-N | SF-268 CNS | OVCAR-5 ovarian | CCRF-CEM leukemia | EKVX NSCLC
